Structures can show the parent of a compound that is named as a salt.

The experiment concerns the target T1, human EP3 receptor (Homo sapiens, UniProt P43115).
T1 construct: expressed in transfected cells; host or cells: CHO K1 (Chinese Hamster Ovary), stably co-transfected with Galpha16 and mitochondrial clytin
T1 sequence (P43115 1-390): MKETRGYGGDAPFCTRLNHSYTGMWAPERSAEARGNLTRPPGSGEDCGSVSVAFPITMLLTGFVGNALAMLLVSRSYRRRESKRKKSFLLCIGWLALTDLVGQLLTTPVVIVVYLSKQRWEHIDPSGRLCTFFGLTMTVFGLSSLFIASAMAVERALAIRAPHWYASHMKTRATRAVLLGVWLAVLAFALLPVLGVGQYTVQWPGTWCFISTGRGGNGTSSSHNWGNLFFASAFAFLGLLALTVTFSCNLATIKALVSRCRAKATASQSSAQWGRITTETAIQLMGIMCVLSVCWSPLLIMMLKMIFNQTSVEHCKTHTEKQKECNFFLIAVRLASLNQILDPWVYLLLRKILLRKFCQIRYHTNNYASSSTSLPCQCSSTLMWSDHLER
The experiment in a line: Cellular in vitro assay for determining EP3 receptor activity (human EP3 cell line, sulprostone-stimulated calcium luminescence). The experiment is classed as cell-based. The settings on record: CHO cells expressing human EP3 and mitochondrial Clytin; antagonist mode, sulprostone at EC50; read-out: EP3 CHO mtCLY ANTAG IC50. In outline: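 Antagonist activity was measured as inhibition of the luminescent calcium signal elicited by EC50 sulprostone, following 10 min compound pretreatment. The cell line was recombinant CHO K1 co-expressing human EP3, Gα16 and the photoprotein Clytin, reconstituted with coelenterazine.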
For the molecule `CN(C)C[C@@H](NC(=O)c1cc2c(=O)[nH]c(-c3ccc4c(c3F)OCCO4)cn2n1)c1ccccc1` [Example 1-109, N-[(1S)-2-(Dimethylamino)-1-phenylethyl]-6-(5-fluoro-2,3-dihydro-1,4-benzodioxin-6-yl)-4-oxo-4,5-dihydropyrazolo[1,5-a]pyrazine-2-carboxamide], the IC50 stood at 5.97 nM.

As to `Cc1c(C(=O)NC2(c3ccc(F)cc3)CN(C)C2)nn2cc(-c3ccc4ccccc4c3)[nH]c(=O)c12` [Example 1-35, N-[3-(4-Fluorophenyl)-1-methylazetidin-3-yl]-3-methyl-6-(naphthalen-2-yl)-4-oxo-4,5-dihydropyrazolo[1,5-a]pyrazine-2-carboxamide hydrochloride], the half-inhibitory concentration (IC50) came out at 4.25 nM.

For the molecule `Cc1ccc(-c2cn3nc(C(=O)N[C@@H](c4ccc(F)cc4)C(C)(C)O)c(C(F)(F)F)c3c(=O)[nH]2)cc1C` [Example 1-67, 6-(3,4-Dimethylphenyl)-N-[(1S)-1-(4-fluorophenyl)-2-hydroxy-2-methylpropyl]-4-oxo-3-(trifluoro-methyl)-4,5-dihydropyrazolo[1,5-a]pyrazine-2-carboxamide], the IC50 was determined as 0.905 nM.

`Cc1ccc(-c2cn3nc(C(=O)NCC(O)C(F)(F)F)c(C)c3c(=O)[nH]2)cc1F` (single isomer, unassigned) [6-410]: the IC50 was 5.18 nM. As for `Cc1cc(-c2cn3nc(C(=O)N[C@H](CCO)c4ccc(F)cc4)c(C4CC4)c3c(=O)[nH]2)ccc1Cl` [6-343], the figure is 0.28 nM.

On to `Cc1cccc2ncc(-c3cn4nc(C(=O)N[C@@H](C)c5ccccc5)c(C(C)C)c4c(=O)[nH]3)cc12` [Example 4-59, 6-(5-Methylquinolin-3-yl)-4-oxo-N-[(7S)-1-phenylethyl]-3-(propan-2-yl)-4,5-dihydropyrazolo[1,5-a]pyrazine-2-carboxamide], for which the IC50 was 0.675 nM. The value for `CN1CC(NC(=O)c2nn3cc(-c4ccc(Cl)c(F)c4)[nH]c(=O)c3c2C2CC2)(c2ccc(F)cc2)C1` [Example 1-169, 6-(4-Chloro-3-fluorophenyl)-3-cyclopropyl-N-[3-(4-fluorophenyl)-1-methylazetidin-3-yl]-4-oxo-4,5-dihydropyrazolo[1,5-a]pyrazine-2-carboxamide] was 3.35 nM; that for `CCn1cc(CNC(=O)c2nn3cc(-c4ccc5ccccc5c4)[nH]c(=O)c3c2C#N)c(C)n1` [Example 3-44, 3-Cyano-N-[(1-ethyl-3-methyl-1H-pyrazol-4-yl)methyl]-6-(naphthalen-2-yl)-4-oxo-4,5-dihydropyrazolo[1,5-a]pyrazine-2-carboxamide] was 2.6 nM; that for `O=C(NCC(O)C(F)(F)F)c1nn2cc(-c3ccc4c(c3)OCCO4)[nH]c(=O)c2c1C(F)(F)F` (single isomer, unassigned) [6-533] was 5.55 nM. Turning to `Cc1ccc(-c2cn3nc(C(=O)NC(C)(C)c4ccc(F)cc4)cc3c(=O)[nH]2)cc1C` [6-45], the IC50 was found to be 2.55 nM. The value for `Cc1ccc(-c2cn3nc(C(=O)NC4(c5ccc(F)cc5)CN(C)C4)c(C4CC4)c3c(=O)[nH]2)cc1Cl` [6-262] was 2.8 nM; that for `O=C(NC1CCN(CC(F)F)C1)c1nn2cc(-c3ccc4ccccc4c3)[nH]c(=O)c2c1C(F)(F)F` (single isomer, unassigned) [6-519] was 6.9 nM. On to `Cc1ccc(-c2cn3nc(C(=O)NC4(C)CCC4)cc3c(=O)[nH]2)cc1C` [Example 5-5, 6-(3,4-Dimethylphenyl)-N-(1-methylcyclobutyl)-4-oxo-4,5-dihydropyrazolo[1,5-a]pyrazine-2-carboxamide], for which the IC50 worked out at 6.7 nM.

On to `Cc1cccc2ncc(-c3cn4nc(C(=O)NCc5ccccn5)c(C(C)C)c4c(=O)[nH]3)cc12` [Example 4-26, 6-(5-Methylquinolin-3-yl)-4-oxo-3-(propan-2-yl)-N-[(pyridin-2-yl)methyl]-4,5-dihydropyrazolo[1,5-a]pyrazine-2-carboxamide], for which the IC50 stood at 2.75 nM. As for `Cc1cc(-c2cn3nc(C(=O)NC4(c5ccc(F)cc5)CN(C5CC5)C4)c(C4CC4)c3c(=O)[nH]2)ccc1Cl` [6-345], the figure is 1.55 nM.

In the case of `COc1ccc(C2(NC(=O)c3cc4c(=O)[nH]c(-c5ccc(C)c(C)c5)cn4n3)CN(C(C)=O)C2)cc1` [Example 1-156, N-[1-Acetyl-3-(4-methoxyphenyl)azetidin-3-yl]-6-(3,4-dimethylphenyl)-4-oxo-5H-pyrazolo[1,5-a]-pyrazine-2-carboxamide], the IC50 worked out at 3.05 nM. On to `Cc1cc(-c2cn3nc(C(=O)NC4CCN(C5CC5)C4)c(C(F)(F)F)c3c(=O)[nH]2)ccc1Cl` (single isomer, unassigned) [6-241], for which the IC50 was 9.5 nM. As for `COc1ccc([C@@H](C)NC(=O)c2nn3cc(-c4ccc(Cl)c(Cl)c4)[nH]c(=O)c3c2C2CC2)cn1` [6-426], the figure is 0.82 nM; as for `O=C(NC1CCN(C2CC2)C1)c1nn2cc(-c3ccc4ccccc4c3)[nH]c(=O)c2c1C(F)(F)F` (single isomer, unassigned) [6-501], 5.7 nM; as for `Cc1ccc(-c2cn3nc(C(=O)NC(c4ccccc4)C(O)C(F)(F)F)cc3c(=O)[nH]2)cc1C` (stereo not shown) [6-350], 0.78 nM. Turning to `CN1CCC(NC(=O)c2nn3cc(-c4ccc5ccccc5c4)[nH]c(=O)c3c2C(F)(F)F)(c2ccc(F)cc2)C1` (racemic) [6-510], the IC50 was determined as 8.53 nM.

For the molecule `Cc1cc(-c2cn3nc(C(=O)N[C@@H](C)C4CC4)c(C4CCC4)c3c(=O)[nH]2)ccc1Cl` [6-618], the IC50 was found to be 1 nM. `CC(NC(=O)c1nn2cc(-c3ccc4ccccc4c3)[nH]c(=O)c2c1C#N)c1ccc(F)cc1` (stereo not shown) [Example 3-52, 3-Cyano-N-[1-(4-fluorophenyl)ethyl]-6-(2-naphthyl)-4-oxo-5H-pyrazolo[1,5-a]pyrazine-2-carboxamide]: the IC50 turned out to be 2.25 nM. The value for `Cc1cc(-c2cn3nc(C(=O)NC4(c5ccc(F)cc5)CN(C5CC5)C4)c(C(F)(F)F)c3c(=O)[nH]2)ccc1Cl` [6-238] was 1.4 nM. For `COCc1c(C(=O)N[C@@H](c2ccc(F)cc2)C(C)(C)O)nn2cc(-c3ccc(C)c(Cl)c3)[nH]c(=O)c12` [6-627], the IC50 stood at 0.58 nM.

On to `Cc1ccc(-c2cn3nc(C(=O)N[C@H](C)c4ccc(C(F)(F)F)cc4)cc3c(=O)[nH]2)cc1C` [Example 1-15, 6-(3,4-Dimethylphenyl)-4-oxo-N-{(1R)-1-[4-(trifluoromethyl)phenyl]ethyl}-4,5-dihydropyrazolo-[1,5-a]pyrazine-2-carboxamide], for which the IC50 stood at 1.7 nM. As for `Cc1cccc2ncc(-c3cn4nc(C(=O)NCC(C)(C)C)c(C(C)C)c4c(=O)[nH]3)cc12` [Example 4-33, N-(2,2-Dimethylpropyl)-6-(5-methylquinolin-3-yl)-4-oxo-3-(propan-2-yl)-4,5-dihydropyrazolo[1,5-a]pyrazine-2-carboxamide], the figure is 1.9 nM; as for `CCN(CCO)CC(NC(=O)c1nn2cc(-c3cnc4cccc(C)c4c3)[nH]c(=O)c2c1C(C)C)c1ccccc1` (stereo not shown) [Example 1-41, N-[2-[Ethyl(2-hydroxyethyl)amino]-1-phenylethyl]-3-isopropyl-6-(5-methyl-3-quinolyl)-4-oxo-5H-pyrazolo[1,5-a]pyrazine-2-carboxamide], 3.7 nM.

As a reminder, the IC50 is the midpoint of a concentration-inhibition curve.

Values taken from patent US20220324865A1 (Bayer Aktiengesellschaft, priority 2018, published 2022).
